From publication PMC12722994, “The aryl hydrocarbon receptor is associated with monocytic AML and innate immune resistance reversible with an AHR inhibitor” (Frontiers in Immunology, 2025)

Target: T1, aryl hydrocarbon receptor (AHR) (Homo sapiens, UniProt P35869)
T1 sequence (P35869 11-848): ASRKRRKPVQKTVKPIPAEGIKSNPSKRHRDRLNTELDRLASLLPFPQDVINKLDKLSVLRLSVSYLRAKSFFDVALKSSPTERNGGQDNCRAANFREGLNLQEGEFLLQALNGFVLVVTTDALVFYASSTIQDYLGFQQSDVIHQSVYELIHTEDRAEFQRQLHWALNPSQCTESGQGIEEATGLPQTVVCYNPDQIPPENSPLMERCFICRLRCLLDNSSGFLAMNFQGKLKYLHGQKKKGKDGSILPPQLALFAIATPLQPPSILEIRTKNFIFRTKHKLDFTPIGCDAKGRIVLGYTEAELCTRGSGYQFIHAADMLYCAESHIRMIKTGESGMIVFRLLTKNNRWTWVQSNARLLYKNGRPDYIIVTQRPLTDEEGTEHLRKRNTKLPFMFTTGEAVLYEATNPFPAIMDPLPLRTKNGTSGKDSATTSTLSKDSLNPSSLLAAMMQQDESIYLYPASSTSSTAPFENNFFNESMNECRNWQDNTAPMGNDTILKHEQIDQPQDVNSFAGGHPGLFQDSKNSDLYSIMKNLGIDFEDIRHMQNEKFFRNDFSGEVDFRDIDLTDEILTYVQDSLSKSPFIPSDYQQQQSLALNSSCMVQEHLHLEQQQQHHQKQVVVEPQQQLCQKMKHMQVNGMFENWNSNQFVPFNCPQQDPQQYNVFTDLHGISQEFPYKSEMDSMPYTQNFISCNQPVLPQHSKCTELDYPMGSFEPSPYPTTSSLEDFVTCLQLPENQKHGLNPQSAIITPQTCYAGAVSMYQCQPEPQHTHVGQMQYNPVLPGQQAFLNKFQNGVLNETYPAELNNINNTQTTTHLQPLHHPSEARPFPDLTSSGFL
Assay: Inhibition of AHR target gene CYP1B1 expression (RT-qPCR) in MOLM-14 cells, endogenous AHR; functional readout only
Format: cell-based

IC50: 5 nM
Substance: IK-364
